Patent US7470446B2, “Method and system for supplying amino acids or chemical derivatives in liquid form to ruminant livestock” (Archer-Daniels-Midland Company, priority 2000, dated 2008)
Read-outs that look alike come from different tables or passages of the source.

Experiment: Plasma lysine response after liquid lysine drench
Format: in vivo, bovines
Conditions: cattle (bovine), oral, 60 g; for concentration at 148 min: 148 minutes (so in the source)
Text: The following study, performed using liquid lysine supplied in a 60-gram amino acid dose in a liquid drench to two bovines, gave the following response curves in the plasma level of the lysine, which is an index of its absorption by the animals, and illustrates that the esophageal muscle reflex is active: […]

[1] = Cow 1, 60-gram dose, read-out: Cow 1, plasma lysine
[2] = Cow 2, 60-gram dose, read-out: Cow 2, plasma lysine

For `NCCCC[C@H](N)C(=O)O` [liquid lysine, lysine], the concentration at 0 min (Cow 1, 60-gram amino acid dose, read-out: Cow 1, plasma lysine) was 10000 ng/mL, the concentration at 80 min [1] was 11300 ng/mL and the concentration at 148 min [1] was 19700 ng/mL. For the same molecule, the concentration at 160 min [1] was 12400 ng/mL, the concentration at 240 min [1] was 16100 ng/mL and the concentration at 360 min [1] was 17300 ng/mL. For the same molecule, the concentration at 420 min [1] was 17500 ng/mL, the concentration at 540 min [1] was 19300 ng/mL and the concentration at 600 min [1] was 15400 ng/mL. For the same molecule, the concentration at 24 h [1] was 14400 ng/mL, the concentration at 0 min (Cow 2, 60-gram amino acid dose, read-out: Cow 2, plasma lysine) was 10700 ng/mL and the concentration at 80 min [2] was 10800 ng/mL. For the same molecule, the concentration at 148 min [2] was 20000 ng/mL, the concentration at 160 min [2] was 13600 ng/mL and the concentration at 240 min [2] was 22400 ng/mL. It also gave a concentration at 360 min [2] of 24200 ng/mL, a concentration at 420 min [2] of 24200 ng/mL and a concentration at 540 min [2] of 17000 ng/mL. For the same molecule, the concentration at 600 min [2] was 14200 ng/mL and the concentration at 24 h [2] was 12000 ng/mL.
